Each structure is given as a SMILES string. pEC50: −log10 of the molar value.

Data on 52 compounds can be found in EP4001279A1, “NOVEL SPIROPYRROLIDINE DERIVED ANTIVIRAL AGENTS” (Enanta Pharmaceuticals, Inc., priority 2020, dated 2022).

In this experiment the test system is 229E human corona virus (hCoV). Kind of experiment: 229E live virus assay (CPE, ATPlite readout in MRC-5 cells). The format is cell-based, hCoV-229E. To be noted: Human coronavirus 229E, MRC5, hCoV-229E live virus, MOI 0.05, ATPlite readout, run in duplicate.
By pEC50 is commonly meant the negative decadic logarithm of the EC50, by convention in mol/L. Take `CC(C)C[C@@H](C(=O)N1C[C@]2(C[C@H]1C#N)C(=O)Nc1ccccc12)N(C)C(=O)c1ccc2nccc(Br)c2c1` [Example 274]: the pEC50 is more than 7.00.
As for `[2H]C([2H])([2H])N(C(=O)c1cc(OC(F)F)c2ncccc2c1)[C@@H](CC(C)(C)C)C(=O)N1C[C@]2(C[C@H]1C#N)C(=O)Nc1ccccc12` [Example 383], the pEC50 is more than 7.00.
The figure for `CN(C(=O)C1(c2ccncc2)CC1)[C@@H](CC(C)(C)F)C(=O)N1C[C@]2(C[C@H]1C#N)C(=O)Nc1ccc(Cl)cc12` [Example 473, N-((S)-1-((3R,5'S)-5-chloro-5'-cyano-2-oxospiro[indoline-3,3'-pyrrolidin]-1'-yl)-4-fluoro-4-methyl-1-oxopentan-2-yl)-N-methyl-1-(pyridin-4-yl)cyclopropane-1-carboxamide] is 6.00 to 7.00; for `CC(C)(C)C[C@H](NC(=O)c1cn(CC(F)(F)F)nn1)C(=O)N1C[C@]2(C[C@H]1C#N)C(=O)Nc1ccccc12` [Example 143] it is more than 7.00; for `CC(C)C[C@@H](C(=O)N1C[C@]2(C[C@H]1C#N)C(=O)Nc1ccccc12)N(C(=O)OCc1ccccc1)C(C)C` [Example 160] it is less than 6.00.
On to `CC(C)C[C@@H](C(=O)N1C[C@]2(C[C@H]1C#N)C(=O)Nc1ccccc12)N(C)C(=O)c1nnc(-c2ccc(F)cc2)o1` [Example 355], for which the negative logarithm of the EC50 (pEC50) is more than 7.00.
The value for `CC(C)C[C@@H](C(=O)N1C[C@]2(C[C@H]1C#N)C(=O)Nc1ccccc12)N(C)C(=O)C#Cc1ccccc1` [Example 248] was more than 7.00; that for `CC(C)C[C@@H](C(=O)N1C[C@]2(C[C@H]1C#N)C(=O)Nc1ccccc12)N(C)C(=O)c1ccc2c(Cl)ccnc2c1` [Example 271] was more than 7.00.
The value for `CC(C)C[C@@H](C(=O)N1C[C@]2(C[C@H]1C#N)C(=O)Nc1ccccc12)N(C)C(=O)c1cnc2c(C(F)(F)F)cccc2c1` [Example 268] was more than 7.00.
The value for `CC(C)C[C@@H](C(=O)N1C[C@]2(C[C@H]1C#N)C(=O)Nc1ccccc12)N(C)C(=O)c1ccc2cccnc2c1O` [Example 285] was more than 7.00; that for `COc1cccc2[nH]c(C(=O)N(C)[C@@H](CC(C)C)C(=O)N3C[C@]4(C[C@H]3C#N)C(=O)Nc3ccccc34)cc12` [Example 42] was more than 7.00.
On to `CC(C)C[C@@H](C(=O)N1C[C@]2(C[C@H]1C=O)C(=O)Nc1ccccc12)N(C)C(=O)OCc1ccccc1` [Example 24], for which the pEC50 was more than 7.00.
The compound `CN(C(=O)Cc1ccncc1)[C@@H](CC(C)(C)F)C(=O)N1C[C@]2(C[C@H]1C#N)C(=O)Nc1ccc(Cl)cc12` [Example 477] gave a pEC50 of 6.00 to 7.00.
The value for `[2H]C([2H])([2H])N(C(=O)C1(c2ccncc2)CC1)[C@@H](CC(C)(C)F)C(=O)N1C[C@]2(C[C@H]1C#N)C(=O)Nc1ccc(Cl)cc12` [Example 475] was 6.00 to 7.00; that for `Cc1cnc2ccc(C(=O)N[C@@H](CC(C)(C)C)C(=O)N3C[C@]4(C[C@H]3C#N)C(=O)Nc3ccccc34)cc2c1` [Example 135] was more than 7.00; that for `CC(C)C[C@@H](C(=O)N1C[C@]2(C[C@H]1C#N)C(=O)Nc1ccccc12)N(C)C(=O)[C@H]1CCN(C(=O)OC(C)(C)C)C1` [Example 344] was 6.00 to 7.00.
Turning to `CC(C)C[C@@H](C(=O)N1C[C@]2(C[C@H]1C#N)C(=O)Nc1ccccc12)N(C)C(=O)c1nnn(C(C)(C)C)n1` [Example 356], the pEC50 was more than 7.00.
The value for `CC(C)C[C@@H](C(=O)N1C[C@]2(C[C@H]1C(=O)CO)C(=O)Nc1ccccc12)N(C)C(=O)c1cc2c(F)cc(F)cc2[nH]1` [Example 157] was 6.00 to 7.00; that for `CC(C)C[C@@H](C(=O)N1C[C@]2(C[C@H]1C#N)C(=O)Nc1ccccc12)N(C)C(=O)c1cc2c(OC(F)(F)F)cccc2[nH]1` [Example 49] was more than 7.00.
The compound `CC(C)C[C@@H](C(=O)N1C[C@]2(C[C@H]1C(=O)C(=O)NC1CCCCC1)C(=O)Nc1ccccc12)N(C)C(=O)c1cc2c(F)cc(F)cc2[nH]1` [Example 155] gave a negative logarithm of the EC50 (pEC50) of less than 6.00.
The figure for `Cc1cccc(C)c1NC(=O)N[C@@H](CC(C)(C)C)C(=O)N1C[C@]2(C[C@H]1C#N)C(=O)Nc1ccccc12` [Example 438] is more than 7.00.
`CC(C)C[C@@H](C(=O)N1C[C@]2(C[C@H]1C#N)C(=O)Nc1ccccc12)N(C)C(=O)c1cnn(C(C)(C)C)c1` [Example 352] had a negative-log EC50 (pEC50) of more than 7.00.
`CC(C)C[C@@H](C(=O)N1C[C@]2(C[C@H]1C#N)C(=O)Nc1ccccc12)N(C)C(=O)CCc1ccccc1` [Example 227]: the pEC50 was more than 7.00.
Regarding `CC(C)C[C@@H](C(=O)N1C[C@]2(C[C@H]1C#N)C(=O)Nc1ccccc12)N(C)C(=O)c1cc2ccc(=O)[nH]c2cc1OC1CC1` [Example 254], the pEC50 was more than 7.00.
As to `CC(C)C[C@@H](C(=O)N1C[C@]2(C[C@H]1C=O)C(=O)Nc1ccccc12)N(C)C(=O)c1cc2c(F)cc(F)c(F)c2[nH]1` [Example 150], the pEC50 is more than 7.00.
`COc1ccc(C(=O)N(C)[C@@H](CC(C)C)C(=O)N2C[C@]3(C[C@H]2C#N)C(=O)Nc2ccccc23)cc1F` [Example 182] gave a pEC50 of more than 7.00.
For the compound `CC(C)C[C@@H](C(=O)N1C[C@]2(C[C@H]1C#N)C(=O)Nc1ccccc12)N(C)C(=O)COc1ccccc1` [Example 229], the pEC50 was more than 7.00.
`CC(C)C[C@@H](C(=O)N1C[C@]2(C[C@H]1C#N)C(=O)Nc1ccccc12)N(C)C(=O)c1cc(Cl)c2nn(C3CC3)cc2c1` [Example 316] had a negative-log EC50 (pEC50) of more than 7.00.
`CC(C)C[C@@H](C(=O)N1C[C@]2(C[C@H]1C#N)C(=O)Nc1ccccc12)N(C)C(=O)c1cc2ccccc2s1` [Example 207]: the pEC50 was more than 7.00.
The figure for `CC(C)C[C@@H](C(=O)N1C[C@]2(C[C@H]1C#N)C(=O)Nc1ccccc12)N(C)C(=O)c1cncc(C#N)c1` [Example 60] is 6.00 to 7.00; for `COc1cccc2[nH]c(C(=O)N(C)[C@@H](CC3CC3)C(=O)N3C[C@]4(C[C@H]3C#N)C(=O)Nc3ccccc34)cc12` [Example 114] it is more than 7.00.
The compound `CC(C)C[C@@H](C(=O)N1C[C@]2(C[C@H]1C#N)C(=O)Nc1ccccc12)N(C)C(=O)c1c(Cl)ccc(Cl)c1F` [Example 169] had a pEC50 of more than 7.00.
Compound `CC(C)C[C@@H](C(=O)N1C[C@]2(C[C@H]1C#N)C(=O)Nc1ccccc12)N(C)C(=O)c1ccc(F)cc1Cl` [Example 61] gave a pEC50 of less than 6.00.
The figure for `COc1cccc2[nH]c(C(=O)N[C@@H](CC(C)C)C(=O)N3C[C@]4(C[C@H]3C=O)C(=O)N(C)c3ccccc34)cc12` [Example 119] is 6.00 to 7.00; for `COc1cccc2[nH]c(C(=O)N(C)[C@@H](CC3CCCCC3)C(=O)N3C[C@]4(C[C@H]3C#N)C(=O)Nc3ccccc34)cc12` [Example 113] it is more than 7.00; for `CC(C)C[C@@H](C(=O)N1C[C@]2(C[C@H]1C#N)C(=O)Nc1ccc(C(=O)N3CCOCC3)cc12)N(C)C(=O)c1cc2c(F)cc(F)cc2[nH]1` [Example 502, N-((S)-1-((3R,5'S)-5'-cyano-5-(morpholine-4-carbonyl)-2-oxospiro[indoline-3,3'-pyrrolidin]-1'-yl)-4-methyl-1-oxopentan-2-yl)-4,6-difluoro-N-methyl-1H-indole-2-carboxamide] it is more than 7.00.
The figure for `CC(C)C[C@@H](C(=O)N1C[C@]2(C[C@H]1C#N)C(=O)Nc1ccccc12)N(C)C(=O)c1cc(F)c2nn(C)cc2c1` [Example 309] is more than 7.00; for `CC(C)C[C@@H](C(=O)N1C[C@]2(C[C@H]1C#N)C(=O)Nc1ccccc12)N(C)C(=O)c1cccc(-c2ccccc2F)c1` [Example 264] it is more than 7.00; for `COc1cccc2[nH]c(C(=O)N[C@@H](CC3CCCCC3)C(=O)N3C[C@]4(C[C@H]3C#N)C(=O)Nc3ccccc34)cc12` [Example 13] it is more than 7.00.
The value for `COc1cccc2[nH]c(C(=O)N[C@@H](CC(C)(C)C)C(=O)N3C[C@]4(C[C@H]3C#N)C(=O)Nc3ccccc34)cc12` [Example 15] was more than 7.00; that for `CC(C)C[C@@H](C(=O)N1C[C@]2(C[C@H]1C(O)S(=O)(=O)O)C(=O)Nc1ccccc12)N(C)C(=O)c1cc2c(F)cc(F)c(F)c2[nH]1` (stereo partly shown) [Example 154] was more than 7.00.
Regarding `CC(C)C[C@@H](C(=O)N1C[C@]2(C[C@H]1C#N)C(=O)Nc1ccccc12)N(C)C(=O)c1[nH]c2ccccc2c1-c1ccccc1` [Example 48], the negative logarithm of the EC50 (pEC50) is 6.00 to 7.00.
`CC(C)C[C@@H](C(=O)N1C[C@]2(C[C@H]1C#N)C(=O)Nc1ccccc12)N(C)C(=O)c1c(Cl)cc(Cl)cc1Cl` [Example 185] had a negative logarithm of the EC50 (pEC50) of more than 7.00.
Compound `CC(C)C[C@@H](C(=O)N1C[C@]2(C[C@H]1C#N)C(=O)Nc1ccccc12)N(C)C(=O)c1cc2c(OC(F)F)cccc2[nH]1` [Example 51] gave a pEC50 of more than 7.00.
Turning to `C=CCN(C(=O)OCc1ccccc1)[C@@H](CC(C)C)C(=O)N1C[C@]2(C[C@H]1C#N)C(=O)Nc1ccccc12` [Example 96], the negative-log EC50 (pEC50) was 6.00 to 7.00.
The figure for `CN(C(=O)OCc1ccccc1)[C@@H](Cc1ccccc1)C(=O)N1C[C@]2(C[C@H]1C#N)C(=O)Nc1ccccc12` [Example 41] is less than 6.00; for `CC(C)C[C@@H](C(=O)N1C[C@]2(C[C@H]1C#N)C(=O)Nc1ccccc12)N(C)C(=O)c1ccc(-c2ccccc2)cc1` [Example 232] it is more than 7.00.
The figure for `CC(C)C[C@@H](C(=O)N1C[C@]2(C[C@H]1C#N)C(=O)Nc1ccccc12)N(C)C(=O)c1cc(F)cc(Cl)c1` [Example 173] is more than 7.00; for `CC(C)C[C@@H](C(=O)N1C[C@]2(C[C@H]1C#N)C(=O)Nc1ccccc12)N(C)C(=O)c1cn(-c2ccc(Cl)cc2)nn1` [Example 284] it is more than 7.00; for `CC(C)C[C@@H](C(=O)N1C[C@]2(C[C@H]1C#N)C(=O)Nc1ccccc12)N(C)C(=O)c1cccc(-c2ccc(C(F)(F)F)cc2)c1` [Example 263] it is more than 7.00.
`COc1cc(C(=O)N(C)[C@@H](CC(C)C)C(=O)N2C[C@]3(C[C@H]2C#N)C(=O)Nc2ccccc23)nc2ccccc12` [Example 258] gave a pEC50 of more than 7.00.
The compound `CC(C)C[C@@H](C(=O)N1C[C@]2(C[C@H]1C#N)C(=O)Nc1ccccc12)N(C)C(=O)c1cc(F)ccc1Cl` [Example 62] gave a negative logarithm of the EC50 (pEC50) of less than 6.00.
